Experiment [1] addresses T1, CRTH2 (Homo sapiens, UniProt Q9Y5Y4).
T1 construct: polymorphonuclear cells (0.5 ml; 10^6/ml cells) in PBS containing 0.9 mM CaCl2 and 0.5 mM MgCl2) were preincubated with various concentrations of test compounds; endogenous in cells; host or cells: polymorphonuclear cells (eosinophils gated by side scatter and VLA-4)
T1 sequence (Q9Y5Y4 1-395): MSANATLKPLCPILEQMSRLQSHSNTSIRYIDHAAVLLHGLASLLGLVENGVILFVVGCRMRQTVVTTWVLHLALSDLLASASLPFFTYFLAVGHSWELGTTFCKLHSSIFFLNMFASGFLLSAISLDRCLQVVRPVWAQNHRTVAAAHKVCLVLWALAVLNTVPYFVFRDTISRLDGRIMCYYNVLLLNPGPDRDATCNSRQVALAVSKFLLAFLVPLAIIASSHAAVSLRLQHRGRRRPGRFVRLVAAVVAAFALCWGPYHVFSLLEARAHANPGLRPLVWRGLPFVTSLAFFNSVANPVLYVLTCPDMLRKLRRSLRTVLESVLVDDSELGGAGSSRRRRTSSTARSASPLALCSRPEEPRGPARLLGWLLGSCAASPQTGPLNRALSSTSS
Put plainly: Human Whole Blood CD11b Antagonist Assay (CD11b expression in eosinophils challenged with 15R-Methyl-PGD2). Format: cell-based. To be noted: agonist 15R-Methyl-PGD2 10 nM, flow cytometry. Here is the method: Human Whole Blood CD11b Antagonist Assay (modified from Nicholson, et al. Pulmonary Pharmacology and Therapeutics: 20 (2007); 52-59). The potential CRTH2 antagonist activity of certain compounds was tested in human whole blood using an assay that tests the ability of the compounds to block the CD11b expression in eosinophils by 15-R-methyl-PGD2. A CRTH2 antagonist should block CD11b expression by subsequently added 15-Methyl-PGD2. Human whole blood (200 μL) was incubated at 37° C. for 10 minutes in the presence of various concentrations of test compounds before being challenged with the agonist 15R-Methyl-PGD2 (10 nM). Reactions were terminated by the addition of ice-cold PBS+0.5% BSA+2 m MEDTA (1 mL) and centrifugation (300×g for 5 minutes at 4° C.) Cells were then incubated at 4° C. for 10 min in the presence of human IgG. Cells were then incubated for 30-45 min with a mixture of PE-Cy5-labeled mouse anti-human CD16 (10 μl; BD Biosciences) and FITC-labeled mouse anti-human CD11b (10 μL; Beckman Coulter.) After rinsing (1 mL ice-cold PBS+0.5% BSA+2 mMEDTA), red blood cells were lysed by the addition of 1 mL ice-cold H2O to the cell pellet for 30 sec-1 min immediately followed by the addition of 3.5% NaCl (300 μL.) Cells were then rinsed (2×−1 ml ice cold PBS+0.5% BSA+2 m MEDTA) and fixed in PBS containing 1% formaldehyde. The distribution of fluorescence intensities was measured by flow cytometry. Eosinophils were gated out on the basis of their granularity (high side scatter) and absence of CD-16. CD11b was then measured on this eosinophil population on the basis of fluorescence due to FITC. DPBS CD11b Antagonist Assay. The potential CRTH2 antagonist activity of certain compounds was tested using a CD11b expression assay using essentially the method described by Monneret et al. (J Pharmacol Exp Ther 304:349-55, 2003). Briefly, polymorphonuclear cells (0.5 ml; 10^6/ml cells) in PBS containing 0.9 mM CaCl2 and 0.5 mM MgCl2) were preincubated with various concentrations of test compounds at room temperature for 10 minutes before they were challenged with the agonist 15R-Methyl-PGD2 (10 nM). The incubations were terminated by the addition of ice-cold FACSFlow (BD Biosciences; Cat# 342003) and centrifugation (400 g for 5 minutes at 4° C.). The cells were then incubated for 30 minutes at 4° C. with a mixture of PE-labeled mouse anti-human VLA-4 (5 μl; BD Biosciences) and FITC-labeled mouse anti-human CD11b (10 μl; Beckman Coulter). […] The distribution of fluorescence intensities among 60,000 cells was measured by flow cytometry. Eosinophils were gated out on the basis of their granularity (high side scatter) and labeling with VLA-4 (PE fluorescence). CD11b was then measured in the eosinophil region on the basis of fluorescence due to FITC. […]
Background: Flow cytometry measures light scatter and fluorescence of single cells or particles in a stream.

For experiment [2], the target named is T1, CRTH2. Put plainly: DPBS CD11b Antagonist Assay (CD11b expression in eosinophils, polymorphonuclear cells challenged with 15R-Methyl-PGD2). Format: cell-based. The following applies: polymorphonuclear cells in PBS with CaCl2 and MgCl2; agonist 15R-Methyl-PGD2 10 nM; flow cytometry. The method, then: Human Whole Blood CD11b Antagonist Assay (modified from Nicholson, et al. Pulmonary Pharmacology and Therapeutics: 20 (2007); 52-59). The potential CRTH2 antagonist activity of certain compounds was tested in human whole blood using an assay that tests the ability of the compounds to block the CD11b expression in eosinophils by 15-R-methyl-PGD2. A CRTH2 antagonist should block CD11b expression by subsequently added 15-Methyl-PGD2. Human whole blood (200 μL) was incubated at 37° C. for 10 minutes in the presence of various concentrations of test compounds before being challenged with the agonist 15R-Methyl-PGD2 (10 nM). Reactions were terminated by the addition of ice-cold PBS+0.5% BSA+2 m MEDTA (1 mL) and centrifugation (300×g for 5 minutes at 4° C.) Cells were then incubated at 4° C. for 10 min in the presence of human IgG. Cells were then incubated for 30-45 min with a mixture of PE-Cy5-labeled mouse anti-human CD16 (10 μl; BD Biosciences) and FITC-labeled mouse anti-human CD11b (10 μL; Beckman Coulter.) After rinsing (1 mL ice-cold PBS+0.5% BSA+2 mMEDTA), red blood cells were lysed by the addition of 1 mL ice-cold H2O to the cell pellet for 30 sec-1 min immediately followed by the addition of 3.5% NaCl (300 μL.) Cells were then rinsed (2×−1 ml ice cold PBS+0.5% BSA+2 m MEDTA) and fixed in PBS containing 1% formaldehyde. The distribution of fluorescence intensities was measured by flow cytometry. Eosinophils were gated out on the basis of their granularity (high side scatter) and absence of CD-16. CD11b was then measured on this eosinophil population on the basis of fluorescence due to FITC. DPBS CD11b Antagonist Assay. The potential CRTH2 antagonist activity of certain compounds was tested using a CD11b expression assay using essentially the method described by Monneret et al. (J Pharmacol Exp Ther 304:349-55, 2003). Briefly, polymorphonuclear cells (0.5 ml; 10^6/ml cells) in PBS containing 0.9 mM CaCl2 and 0.5 mM MgCl2) were preincubated with various concentrations of test compounds at room temperature for 10 minutes before they were challenged with the agonist 15R-Methyl-PGD2 (10 nM). The incubations were terminated by the addition of ice-cold FACSFlow (BD Biosciences; Cat# 342003) and centrifugation (400 g for 5 minutes at 4° C.). The cells were then incubated for 30 minutes at 4° C. with a mixture of PE-labeled mouse anti-human VLA-4 (5 μl; BD Biosciences) and FITC-labeled mouse anti-human CD11b (10 μl; Beckman Coulter). The cells were then incubated with Optilyse C (0.25 ml; Beckman Coulter) for 15 minutes, centrifuged, and then fixed in PBS (0.4 ml; calcium and magnesium free) containing 1% formaldehyde. The distribution of fluorescence intensities among 60,000 cells was measured by flow cytometry. Eosinophils were gated out on the basis of their granularity (high side scatter) and labeling with VLA-4 (PE fluorescence). CD11b was then measured in the eosinophil region on the basis of fluorescence due to FITC. All data were corrected for the value obtained for the corresponding isotope control antibody.

pIC50: −log10 of the molar value.

Five compounds from US20110311483A1, “CRTH2 MODULATORS” (IRONWOOD PHARMACEUTICALS, INC., priority 2010, published 2011) can be followed below.

By pIC50 is commonly meant the IC50 on a negative log10 scale, so that one unit is a factor of ten. A higher pIC50 goes with a small IC50.

On to `Cc1c(C(=O)c2ccccc2S(=O)(=O)N2CCOCC2)c2c(n1CC(=O)O)CCC(C)(C)C2` [Compound I-1, 2-(2,5,5-Trimethyl-3-(2-(morpholinosulfonyl)benzoyl)-4,5,6,7-tetrahydro-1H-indol-1-yl)acetic acid], for which the pIC50 in experiment [1] and in experiment [2] was 6.22 to 7.00 in each case.

Turning to `CCOC(=O)Cn1c(C)c(Cc2ccccc2S(=O)(=O)N(C)CC)c2c1CC(C)(C)CC2=O` [Compound I-2, Ethyl 2-(3-(2-(N-ethyl-N-methylsulfamoyl)benzyl)-2,6,6-trimethyl-4-oxo-4,5,6,7-tetrahydro-1H-indol-1-yl)acetate], the pIC50 in experiment [1] was less than 6.22; in experiment [2], 6.22 to 7.00.

With `CCN(C)S(=O)(=O)c1ccccc1Cc1c2c(n(CC(=O)O)c1C)CC(C)(C)CC2=O` [Compound I-3, 2-(3-(2-(N-ethyl-N-methylsulfamoyl)benzyl)-2,6,6-trimethyl-4-oxo-4,5,6,7-tetrahydro-1H-indol-1-yl)acetic acid], the pIC50 in experiment [1] is 7.00 to 8.00; in experiment [2] it was greater than 8.00.

As to `Cc1c(Cc2ccccc2S(=O)(=O)N2CCCCC2)c2c(n1CC(=O)O)CC(C)(C)CC2=O` [Compound I-4, 2-(2,6,6-Trimethyl-4-oxo-3-(2-(piperidin-1-ylsulfonyl)benzyl)-4,5,6,7-tetrahydro-1H-indol-1-yl)acetic acid], the pIC50 in experiment [1] and in experiment [2] was greater than 8.00 throughout.

`CCOC(=O)C(C)n1c(C)c(Cc2ccccc2S(=O)(=O)N2CCCC2)c2c1CC(C)(C)CC2=O` (stereo not drawn) [Compound I-5, Ethyl 2-(2,6,6-trimethyl-4-oxo-3-(2-(pyrrolidin-1-ylsulfonyl)benzyl)-4,5,6,7-tetrahydro-1H-indol-1-yl)propanoate] had a pIC50 in experiment [2] of less than 6.22.
